According to patent publication US20120283216A1, “FUNGICIDAL 2-(BICYCLIC ARYLOXY)CARBOXAMIDES” (priority 2009, published 2012):

What was measured:
Format in all cases: in vivo
[1] = tested on: Blumeria graminis f. sp. tritici; assay: Test A: wheat powdery mildew, preventive spray on wheat seedlings, visual disease rating; settings: preventive spray at 40 ppm, rated 8 days after inoculation; for pest or weed control at 40 ppm: Blumeria graminis, 192 h, read-out: Test A disease control rating (100 = 100% disease control, 0 = no disease control relative to the controls)
Text: General protocol for preparing test suspensions for Tests A-C: the test compounds were first dissolved in acetone in an amount equal to 11% of the final volume and then suspended at the desired concentration (in ppm) in acetone and purified water (50/50 mix by volume) containing 250 ppm of the surfactant Trem® 014 (polyhydric alcohol esters). The resulting test suspensions were then used in Tests A-C. Spraying a 40 ppm test suspension to the point of run-off on the test plants was the equivalent of a rate of 800 g/ha. The test suspension was sprayed to the point of run-off on wheat seedlings. The following day the seedlings were inoculated with a spore dust of Blumeria graminis f. sp. tritici, (the causal agent of wheat powdery mildew) and incubated in a growth chamber at 20° C. for 8 days, after which time disease ratings were visually made. Results for Tests A-C are given in Table A. In the Table, a rating of 100 indicates 100% disease control and a rating of 0 indicates no disease control (relative to the controls). A dash (-) indicates no test results. All results are from applications of 40 ppm.

[2] = tested on: Botrytis cinerea; assay: Test C: tomato botrytis, preventive spray on tomato seedlings, visual disease rating; settings: preventive spray at 40 ppm, rated after 48 h + 3 days; for pest or weed control at 40 ppm: Botrytis cinerea, 120 h, read-out: Test C disease control rating (100 = 100% disease control, 0 = no disease control relative to the controls)
Text: General protocol for preparing test suspensions for Tests A-C: the test compounds were first dissolved in acetone in an amount equal to 11% of the final volume and then suspended at the desired concentration (in ppm) in acetone and purified water (50/50 mix by volume) containing 250 ppm of the surfactant Trem® 014 (polyhydric alcohol esters). The resulting test suspensions were then used in Tests A-C. Spraying a 40 ppm test suspension to the point of run-off on the test plants was the equivalent of a rate of 800 g/ha.
The test suspension was sprayed to the point of run-off on tomato seedlings. The following day the seedlings were inoculated with a spore suspension of Botrytis cinerea (the causal agent of tomato botrytis) and incubated in saturated atmosphere at 20° C. for 48 h, and then moved to a growth chamber at 27° C. for 3 additional days, after which time disease ratings were visually made.
Results for Tests A-C are given in Table A. In the Table, a rating of 100 indicates 100% disease control and a rating of 0 indicates no disease control (relative to the controls). A dash (-) indicates no test results. All results are from applications of 40 ppm.

[3] = tested on: Septoria tritici; assay: Test B: wheat leaf blotch, preventive spray on wheat seedlings, visual disease rating; settings: preventive spray at 40 ppm, rated after 48 h + 19 days; for pest or weed control at 40 ppm: Zymoseptoria tritici, 504 h, read-out: Test B disease control rating (100 = 100% disease control, 0 = no disease control relative to the controls)
Text: General protocol for preparing test suspensions for Tests A-C: the test compounds were first dissolved in acetone in an amount equal to 11% of the final volume and then suspended at the desired concentration (in ppm) in acetone and purified water (50/50 mix by volume) containing 250 ppm of the surfactant Trem® 014 (polyhydric alcohol esters). The resulting test suspensions were then used in Tests A-C. Spraying a 40 ppm test suspension to the point of run-off on the test plants was the equivalent of a rate of 800 g/ha. The test suspension was sprayed to the point of run-off on wheat seedlings. The following day the seedlings were inoculated with a spore suspension of Septoria tritici (the causal agent of wheat leaf blotch) and incubated in a saturated atmosphere at 20° C. for 48 h, and then moved to a growth chamber at 20° C. for 19 days, after which time disease ratings were visually made. Results for Tests A-C are given in Table A. In the Table, a rating of 100 indicates 100% disease control and a rating of 0 indicates no disease control (relative to the controls). A dash (-) indicates no test results. All results are from applications of 40 ppm.

SMILES | pest or weed control at 40 ppm [1] | pest or weed control at 40 ppm [2] | pest or weed control at 40 ppm [3] | Test A disease control rating (100 = 100% disease control, 0 = no disease control relative to the controls) [1] | Test C disease control rating (100 = 100% disease control, 0 = no disease control relative to the controls) [2] | Test B disease control rating (100 = 100% disease control, 0 = no disease control relative to the controls) [3]
CCC(Oc1ccc2ccc(C#N)cc2c1)C(=O)NC(C)(C)COCOC (stereo not drawn) [Compound 22, 2-[(7-cyano-2-naphthalenyl)oxy]-N-[2-(methoxymethoxy)-1,1-dimethylethyl]butanamide] | 93% | 100% | 100% | – | – | –
COCC(C)(C)NC(=O)C(C)Oc1ccc2ccc(Br)cc2c1 (stereo not drawn) [Compound 24, 2-[(7-bromo-2-naphthalenyl)oxy]-N-(2-methoxy-1,1-dimethylethyl)propanamide] | 100% | 98% | 100% | – | – | –
COCC(C)(C)NC(=O)C(C)Oc1ccc2ccc(C#N)cc2c1 (stereo not drawn) [Compound 25] | – | – | – | 47% | 99% | 96%
CCC(Oc1ccc2ccc(Br)cc2c1)C(=O)NC(C)(C)CF (stereo not drawn) [Compound 26, 2-[(7-bromo-2-naphthalenyl)oxy]-N-(2-fluoro-1,1-dimethylethyl)butanamide] | 100% | 99% | 100% | – | – | –
CCC(Oc1ccc2ccc(Br)cc2c1)C(=O)NC(C)(C)C(F)(F)F (stereo not drawn) [Compound 27] | – | – | – | 99% | 98% | 86%
CCC(Oc1ccc2ccc(Br)cc2c1)C(=O)NC(C)(C)CSC(C)=O (stereo not drawn) [Compound 28] | – | – | – | 91% | 99% | 99%
CCC(Oc1ccc2ccc(N)cc2c1)C(=O)NC(C)(C)C (stereo not drawn) [Compound 29] | 0% | 95% | 76% | – | – | –
CC(=O)C(Oc1ccc2ccc(Br)cc2c1)C(=O)NC(C)(C)C (stereo not drawn) [Compound 32] | 0% | 26% | 0% | – | – | –
CCC(Oc1ccc2ccc(C#N)cc2c1)C(=O)NC(C)(C)C (stereo not drawn) [Compound 33] | 62% | 95% | 99% | – | – | –
COCC(Oc1cnc2ccc(Br)cc2c1)C(=O)NC(C)(C)C (stereo not drawn) [Compound 34] | – | – | – | 0% | 94% | 92%
C#CC(C)(C)NC(=O)C(COC)Oc1cnc2ccc(Br)cc2c1 (stereo not drawn) [Compound 36] | – | – | – | 0% | 36% | 89%
CCC(Oc1cnc2ccc(Br)cc2c1)C(=O)NC(C)(C)C (stereo not drawn) [Compound 37, 2-[(6-bromo-3-quinolinyl)oxy]-N-(1,1-dimethylethyl)butanamide] | 89% | 99% | 100% | – | – | –
C#CC(C)(C)NC(=O)C(CC)Oc1cnc2ccc(Br)cc2c1 (stereo not drawn) [Compound 38] | – | – | – | 21% | 99% | 100%
CCC(Oc1cnc2ccc(Br)cc2c1)C(=O)NC(C)(C)CO (stereo not drawn) [Compound 39] | – | – | – | 21% | 33% | 0%
CCC(Oc1cnc2ccc(Cl)cc2c1)C(=O)NC(C)(C)C (stereo not drawn) [Compound 40] | 92% | 99% | 100% | – | – | –
C#CC(C)(C)NC(=O)C(CC)Oc1cnc2ccc(Cl)cc2c1 (stereo not drawn) [Compound 41] | – | – | – | 0% | 96% | 96%
CCC(Oc1cnc2ccc(Cl)cc2c1)C(=O)NC(C)(C)CO (stereo not drawn) [Compound 42] | – | – | – | 0% | 0% | 0%
CCC(Oc1cnc2ccc(Br)cc2c1)C(=O)NC1(C(=O)OC)CC1 (stereo not drawn) [Compound 44] | – | – | – | 0% | 0% | 0%
CCC(Oc1cnc2ccc(F)cc2c1)C(=O)NC(C)(C)C (stereo not drawn) [Compound 45] | 84% | 98% | 42% | – | – | –
CCC(Oc1cnc2ccc(F)cc2c1)C(=O)NC1(C#N)CC1 (stereo not drawn) [Compound 46] | – | – | – | 0% | 0% | 0%
C#CC(C)(C)NC(=O)C(CC)Oc1cnc2ccc(F)cc2c1 (stereo not drawn) [Compound 47] | – | – | – | 0% | 70% | 20%
CCC(Oc1cnc2ccc(Br)cc2c1)C(=O)NC(C)(C)COC (stereo not drawn) [Compound 48] | – | – | – | 96% | 99% | 99%
CCC(Oc1cnc2ccc(Cl)cc2c1)C(=O)NC(C)(C)COC (stereo not drawn) [Compound 49] | – | – | – | 96% | 98% | 99%
CCOCC(C)(C)NC(=O)C(CC)Oc1cnc2ccc(Cl)cc2c1 (stereo not drawn) [Compound 50] | – | – | – | 84% | 90% | 98%
CCC(Oc1cnc2ccc(I)cc2c1)C(=O)NC(C)(C)C (stereo not drawn) [Compound 51, N-(1,1-dimethylethyl)-2-[(6-iodo-3-quinolinyl)oxy]butanamide] | 93% | 99% | 100% | – | – | –
CCC(Oc1cnc2ccc(I)cc2c1)C(=O)NC(C)(C)CO (stereo not drawn) [Compound 52] | – | – | – | 0% | 82% | 45%
CCC(Oc1cnc2ccc(I)cc2c1)C(=O)NC(C)(C)COC (stereo not drawn) [Compound 53] | – | – | – | 99% | 99% | 100%
